# Reference: US10174037B2, “Dihydropyrazolopyrimidinone compounds as PDE2 inhibitors” (Merck Sharp & Dohme Corp., priority 2015, dated 2019)
# Target: human PDE2A1 (Homo sapiens (Human), UniProt O00408)
# Assay: PDE selectivity IMAP FP assay, human PDE2A1
# Format: biochemical
# Conditions: Human PDE2; Lab B; read-out: Human PDE2 Ki (nM) Lab B
# Protocol: Selectivity for PDE2, as compared to other PDE families, was assessed using the IMAP® technology. Human PDE10A2 enzyme was prepared from cytosolic fractions of transiently transfected HEK cells.
# A Labcyte POD 810 (Labcyte, Sunnyvale, Calif.) was used to dispense 200 nL from each well of the titration plate to make eleven copies of the assay plate for each titration, one copy for each PDE enzyme. A solution of each enzyme (dilution from aliquots, sufficient to produce 20% substrate conversion) and a separate solution of FAM-labeled cAMP or FAM-labeled cGMP from Molecular Devices (Sunnyvale, Calif., product # R7506 or cGMP#R7508), at a final concentration of 50 nM were made in the assay buffer (10 mM Tris HCl, pH 7.2, 10 mM MgCl2, 0.05% NaN3 0.01% Tween-20, and 1 mM DTT). Note that the substrate for PDE2 is 50 nM FAM cAMP containing 1000 nM of cGMP. The enzyme and the substrate were then added to the assay plates in two consecutive additions of 10 μL and then shaken to mix. The reaction was allowed to proceed at room temperature for 60 minutes. A binding solution was then made from the kit components, comprised of 80% Solution A, 20% Solution B and binding reagent at a volume of 1/600 the total binding solution. The enzymatic reaction was stopped by addition of 60 μL of the binding solution to each well of the assay plate. […] The plates were incubated at room temperature for one hour, then the parallel and perpendicular fluorescence was measured using a Tecan Genios Pro plate reader (Tecan, Switzerland). […] The intrinsic PDE2 inhibitory activity of a compound which may be used in accordance with the present invention may be determined by these assays. […]
# The PDE2 Ki is a measure of the ability of the test compound to inhibit the action of the PDE2 enzyme.
# Chain of human PDE2A1 (O00408 other isoform, or with tags, fused parts or gaps): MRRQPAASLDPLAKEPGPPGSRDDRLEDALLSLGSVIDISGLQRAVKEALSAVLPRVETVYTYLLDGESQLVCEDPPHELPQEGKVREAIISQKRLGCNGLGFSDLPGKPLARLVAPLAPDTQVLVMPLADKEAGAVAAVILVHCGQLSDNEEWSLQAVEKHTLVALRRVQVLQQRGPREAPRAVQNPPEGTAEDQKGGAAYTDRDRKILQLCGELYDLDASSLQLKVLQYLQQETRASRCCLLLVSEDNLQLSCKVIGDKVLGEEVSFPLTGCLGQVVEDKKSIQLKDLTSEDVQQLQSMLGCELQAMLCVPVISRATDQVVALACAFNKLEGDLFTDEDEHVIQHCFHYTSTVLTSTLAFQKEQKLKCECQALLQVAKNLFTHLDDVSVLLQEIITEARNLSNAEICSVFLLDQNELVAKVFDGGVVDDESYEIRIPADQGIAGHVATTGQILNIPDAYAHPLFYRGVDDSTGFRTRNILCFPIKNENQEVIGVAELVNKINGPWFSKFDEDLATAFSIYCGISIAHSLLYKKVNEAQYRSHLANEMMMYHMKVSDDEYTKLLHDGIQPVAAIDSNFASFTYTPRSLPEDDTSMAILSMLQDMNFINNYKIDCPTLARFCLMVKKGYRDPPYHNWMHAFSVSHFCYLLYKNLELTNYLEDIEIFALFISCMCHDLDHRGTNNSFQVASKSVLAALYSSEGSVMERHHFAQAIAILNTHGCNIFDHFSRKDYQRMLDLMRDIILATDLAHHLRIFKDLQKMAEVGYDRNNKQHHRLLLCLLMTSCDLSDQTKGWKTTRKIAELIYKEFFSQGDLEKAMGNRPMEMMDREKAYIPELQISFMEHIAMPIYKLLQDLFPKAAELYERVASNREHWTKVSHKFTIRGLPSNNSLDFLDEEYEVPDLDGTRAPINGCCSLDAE
row,Ki [nM],Structure (SMILES)
1,0.21,"CC(C)C(c1ccc(CC(F)(F)F)cc1)n1nc(CO)c2c(=O)[nH]c(N(C)C)nc21 (single isomer, unassigned) [Example 89, (S)- or (R)-6-(Dimethylamino)-3-(hydroxymethyl)-1-(2-methyl-1-(4-(2,2,2-trifluoroethyl)phenyl)propyl)-1H-pyrazolo[3,4-d]pyrimidin-4(5H)-one]"
2,8.4,"CCC(c1ccc(C(F)F)cc1)n1nc(CO)c2c(=O)[nH]c(N(C)C)nc21 (single isomer, unassigned) [Example 92, (R)- or (S)-1-(1-(4-(Difluoromethyl)phenyl)propyl)-6-(dimethylamino)-3-(hydroxymethyl)-1H-pyrazolo[3,4-d]pyrimidin-4(5H)-one]"
3,1.3,"CCC(c1ccc(CC(F)(F)F)cc1)n1nc(CO)c2c(=O)[nH]c(N(C)C)nc21 (single isomer, unassigned) [Example 98, (R)- or (S)-6-(Dimethylamino)-3-(hydroxymethyl)-1-(1-(4-(2,2,2-trifluoroethyl)phenyl)propyl)-1H-pyrazolo[3,4-d]pyrimidin-4(5H)-one]"
4,0.31,"CCC(c1ccc(CC(F)(F)F)cc1)n1nc(CO)c2c(=O)[nH]c(N(C)C)nc21 (single isomer, unassigned) [Example 99, (S)- or (R)-6-(Dimethyiamino)-3-(hydroxymethyl)-1-(1-(4-(2,2,2-trifluoroethyl)phenyl)propyl)-1H-pyrazolo[3,4-d]pyrimidin-4(5H)-one]"
5,9.9,"CC(c1ccc(C(C)(F)F)cc1)n1nc(CO)c2c(=O)[nH]c(N(C)C)nc21 (single isomer, unassigned) [Example 102, (R)- or (S)-1-(1-(4-(1,1-Difluoroethyl)phenyl)ethyl)-6-(dimethylamino)-3-(hydroxymethyl)-1H-pyrazolo[3,4-d]pyrimidin-4(5H)-one]"
6,40,"CC(c1ccc(C(F)F)c(F)c1)n1nc(CO)c2c(=O)[nH]c(N(C)C)nc21 (single isomer, unassigned) [Example 104, (R)- or (S)-1-(1-(4-(Difluoromethyl)-3-fluorophenyl)ethyl)-6-(dimethylamino)-3-(hydroxymethyl)-1H-pyrazolo[3,4-d]pyrimidin-4(5H)-one]"
7,8,"CC(c1ccc(C(C)(F)F)cc1F)n1nc(CO)c2c(=O)[nH]c(N(C)C)nc21 (single isomer, unassigned) [Example 109, (S)- or (R)-1-(1-(4-(1,1-Difluoroethyl)-2-fluorophenyl)ethyl)-6-(dimethylamino)-3-(hydroxymethyl)-1H-pyrazolo[3,4-d]pyrimidin-4(5H)-one]"
8,2.8,"CCC(c1ccc(C(C)(F)F)cc1F)n1nc(CO)c2c(=O)[nH]c(N(C)C)nc21 (single isomer, unassigned) [Example 110, (R)- or (S)-1-(1-(4-(1,1-Difluoroethyl)-2-fluorophenyl)propyl)-6-(dimethylamino)-3-(hydroxymethyl)-1H-pyrazolo[3,4-d]pyrimidin-4(5H)-one]"
9,0.21,"CC(C)C(c1ccc(C(F)F)c(F)c1)n1nc(CO)c2c(=O)[nH]c(N(C)C)nc21 (single isomer, unassigned) [Example 115, (R)- or (S)-1-(1-(4-(Difluoromethyl)-3-fluorophenyl)-2-methylpropyl)-6-(dimethylamino)-3-(hydroxymethyl)-1H-pyrazolo[3,4-d]pyrimidin-4(5H)-one]"
10,2.4,"CCC(c1ccc(OC(F)F)cc1)n1nc(CO)c2c(=O)[nH]c(N(C)C)nc21 (single isomer, unassigned) [Example 125, (S)- or (R)-1-(1-(4-(Difluoromethoxy)phenyl)propyl)-6-(dimethylamino)-3-(hydroxymethyl)-1H-pyrazolo[3,4-d]pyrimidin-4(5H)-one]"
11,3.9,"CCC(c1ccc(C(F)(F)F)cc1F)n1nc(CO)c2c(=O)[nH]c(N(C)C)nc21 (single isomer, unassigned) [Example 131, (S)- or (R)-6-(Dimethylamino)-1-(1-(2-fluoro-4-(trifluoromethyl)phenyl)propyl)-3-(hydroxymethyl)-1H-pyrazolo[3,4-d]pyrimidin-4(5H)-one]"
12,1.9,"CCC(c1ccc(C(C)(F)F)cc1)n1nc(CO)c2c(=O)[nH]c(N(C)C)nc21 (single isomer, unassigned) [Example 136, (R)- or (S)-1-(1-(4-(1,1-Difluoroethyl)phenyl)propyl)-6-(dimethylamino)-3-(hydroxymethyl)-1H-pyrazolo[3,4-d]pyrimidin-4(5H)-one]"
13,3,"CN(C)c1nc2c(c(CO)nn2C(c2ccc(C(F)F)c(F)c2)C2CC2)c(=O)[nH]1 (single isomer, unassigned) [Example 153, (S)- or (R)-1-(Cyclopropyl(4-(difluoromethyl)-3-fluorophenyl)methyl)-6-(dimethylamino)-3-(hydroxymethyl)-1H-pyrazolo[3,4-d]pyrimidin-4(5H)-one]"
14,2.2,"CCC(c1ccc(C(F)(F)F)cc1)n1nc(CF)c2c(=O)[nH]c(N(C)C)nc21 (single isomer, unassigned) [Example 172, (R)- or (S)-6-(Dimethylamino)-3-(fluoromethyl)-1-(1-(4-(trifluoromethyl)phenyl)propyl)-1H-pyrazolo[3,4-d]pyrimidin-4(5H)-one]"
15,2.7,"CC(c1ccc(CC(F)(F)F)cc1)n1nc(CF)c2c(=O)[nH]c(N(C)C)nc21 (single isomer, unassigned) [Example 174, (R)- or (S)-6-(Dimethylamino)-3-(fluoromethyl)-1-(1-(4-(2,2,2-trifluoroethyl)phenyl)ethyl)-1H-pyrazolo[3,4-d]pyrimidin-4(5H)-one]"
16,0.39,"CC(c1ccc(CC(F)(F)F)cc1)n1nc(CF)c2c(=O)[nH]c(N(C)C)nc21 (single isomer, unassigned) [Example 175, (S)- or (R)-6-(Dimethylamino)-3-(fluoromethyl)-1-(1-(4-(2,2,2-trifluoroethyl)phenyl)ethyl)-1H-pyrazolo[3,4-d]pyrimidin-4(5H)-one]"
17,1.1,"CN(C)c1nc2c(c(CF)nn2C(c2ccc(C(F)(F)F)cc2)C2CC2)c(=O)[nH]1 (single isomer, unassigned) [Example 178, (R)- or (S)-1-(Cyclopropyl(4-(trifluoromethyl)phenyl)methyl)-6-(dimethylamino)-3-(fluoromethyl)-1H-pyrazolo[3,4-d]pyrimidin-4(5H)-one]"
18,1.2,"CN(C)c1nc2c(c(CF)nn2C(c2ccc(C(F)(F)F)c(F)c2)C2CC2)c(=O)[nH]1 (single isomer, unassigned) [Example 180, (R)- or (S)-1-(Cyclopropyl(3-fluoro-4-(trifluoromethyl)phenyl)methyl)-6-(dimethylamino)-3-(fluoromethyl)-1H-pyrazolo[3,4-d]pyrimidin-4(5H)-one]"
19,19,"CC(c1ccc(C(F)(F)F)cc1F)n1nc(CF)c2c(=O)[nH]c(N(C)C)nc21 (single isomer, unassigned) [Example 187, (S)- or (R)-6-(Dimethylamino)-1-(1-(2-fluoro-4-(trifluoromethyl)phenyl)ethyl)-3-(fluoromethyl)-1H-pyrazolo[3,4-d]pyrimidin-4(5H)-one]"
20,27,"CC(c1ccc(C(F)F)cc1)n1nc(CF)c2c(=O)[nH]c(N(C)C)nc21 (single isomer, unassigned) [Example 190, (R)- or (S)-1-(1-(4-(Difluoromethyl)phenyl)ethyl)-6-(dimethylamino)-3-(fluoromethyl)-1H-pyrazolo[3,4-d]pyrimidin-4(5H)-one]"
21,18,"CC(c1ccc(C(F)F)c(F)c1)n1nc(CF)c2c(=O)[nH]c(N(C)C)nc21 (single isomer, unassigned) [Example 197, (S)- or (R)-1-(1-(4-(Difiuoromethyl)-3-fluorophenyl)ethyl)-6-(dimethylamino)-3-(fluoromethyl)-1H-pyrazolo[3,4-d]pyrimidin-4(5H)-one]"
22,1.1,"CCC(c1ccc(C(F)(F)F)cc1F)n1nc(CF)c2c(=O)[nH]c(N(C)C)nc21 (single isomer, unassigned) [Example 199, (S)- or (R)-6-(Dimethylamino)-1-(1-(2-fluoro-4-(trifluoromethyl)phenyl)propyl)-3-(fluoromethyl)-1H-pyrazolo[3,4-d]pyrimidin-4(5H)-one]"
23,1.2,"CC(C)C(c1ccc(C(F)(F)F)cc1F)n1nc(CF)c2c(=O)[nH]c(N(C)C)nc21 (single isomer, unassigned) [Example 201, (S)- or (R)-6-(Dimethylamino)-1-(1-(2-fluoro-4-(trifluoromethyl)phenyl)-2-methylpropyl)-3-(fluoromethyl)-1H-pyrazolo[3,4-d]pyrimidin-4(5H)-one]"

row,Structure (SMILES),Ki [nM]
1,"CC(c1ccc(C(C)(F)F)cc1)n1nc(CF)c2c(=O)[nH]c(N(C)C)nc21 (single isomer, unassigned) [Example 194, (R)- or (S)-1-(1-(4-(1,1-Difluoroethyl)phenyl)ethyl)-6-(dimethylamino)-3-(fluoromethyl)-1H-pyrazolo[3,4-d]pyrimidin-4(5H)-one]",6.1
